Source: article PMC10403574, “Discovery of a pyrrole-pyridinimidazole derivative as novel SIRT6 inhibitor for sensitizing pancreatic cancer to gemcitabine” (Cell Death & Disease, 2023)

Key:
SIRT2 = SIRT2 (Homo sapiens, UniProt Q8IXJ6); assay: Deacetylation activity selectivity, SIRT2; format: biochemical
Protocol: (§1) Fluor-De-Lys (FDL) assays were used for the examination of the deacetylation activities of sirtuins as described previously. For the detection of SIRT6 activity, the 50-μL reaction mixture contained 5 μM SIRT6, 2.5 mM NAD^+ (β-Nicotinamide adenine dinucleotide hydrate, Sigma, N1636), 75 μM RHKK-Ac-AMC (GL Biochem, Shanghai), compounds/DMSO, and assay buffer. The reactions were incubated at 37 °C for 2 h, added 50 μL stop solution (40 mM nicotinamide, 6 mg/mL trypsin) at 25 °C for 30 min. Fluorescence intensity was measured at an excitation wavelength of 360 nm and an emission wavelength of 460 nm. IC50 values were calculated in GraphPad Prism version 8.00.
(§2) Based on the above results, 8a was further investigated in this study. […] To further evaluate the selectivity of 8a for SIRT6, we examined the effect of 8a on the deacetylation activity of other HDAC family members, including HDAC1-HDAC11, SIRT1-SIRT3 and SIRT5. […] Furthermore, to confirm binding of 8a to SIRT6 in cells, we carried out the cellular thermal shift assay (CETSA). The CETSA approach builds on the thermal shift assay concept where ligand binding to its target protein enhances the target protein stability. We observed that the thermal stability of SIRT6 increased after 8a treatment (Figs. 2c, d).

SIRT3 = SIRT3 (Homo sapiens, UniProt Q9NTG7); assay: Deacetylation activity selectivity, SIRT3; format: biochemical
Protocol: as §1, §2

HDAC1 = HDAC1 (Homo sapiens, UniProt Q13547); assay: Deacetylation activity selectivity, HDAC1; format: biochemical
Description: as §2

HDAC7 = HDAC7 (Homo sapiens, UniProt Q8WUI4); assay: Deacetylation activity selectivity, HDAC7; format: biochemical
Description: as §2

HDAC9 = HDAC9 (Homo sapiens, UniProt Q9UKV0); assay: Deacetylation activity selectivity, HDAC9; format: biochemical
Description: as §2

HDAC10 = HDAC10 (Homo sapiens, UniProt Q969S8); assay: Deacetylation activity selectivity, HDAC10; format: biochemical
Description: as §2

HUVEC cells = assay: MTT cytotoxicity, normal HUVEC cells; format: cell-based; conditions: 72 h
BXPC-3 cells = assay: Colony formation assay; format: cell-based; conditions: dose-dependent
Protocol: The BXPC-3 cells were plated in six-well plates at 1000 cells per well. After 12 h, different concentrations of 8a, Gemcitabine or their combination were added for 7–10 days. The cells were fixed for 15 min with paraformaldehyde (4%) and then stained with crystal violet (0.1%) for 15 min at room temperature. Surviving colonies consisting of 50 or more cells were counted under microscope.

[1] = test system: islet α cells and β cells; assay: Immunofluorescence of pancreatic tissues (islet cell composition); format: in vivo; conditions: mice, 8a 20 mg/kg, 2 weeks
Protocol: Male C57BL/6 mice (18 ± 2 g, 5 weeks old) were randomly divided into four groups with six mice per group. Acute drug toxicity test was performed. Mice were fasted for 6 h, and basal blood glucose and serum insulin levels were measured by using Accu-Check Performa (Roche, Swiss) glucose meter and Mouse Insulin ELISA kit (Solarbio). Compound 8a (10, 20, 30 mg/kg) was intraperitoneally injected for 10 min, followed by glucose (2 g/kg) intraperitoneally injected. The blood glucose concentration was measured at 30 and 60 min after glucose injection, and the serum insulin content of mice was measured at 60 min. Compound 8a was treated every other day for 2 weeks and tested for chronic drug toxicity. According to the above method, the serum glucose and insulin content of mice were measured.
Pancreatic tissue sections were incubated with primary antibodies overnight at 4 °C. The primary antibodies were as follows: anti-Glucagon (Cell Signaling Technology, Cat#2760), anti-insulin (Cell Signaling Technology, Cat#3014). The sections were stained with secondary antibodies (Alexa Fluor 488-conjugated anti-rabbit IgG, Abcam, Cat#ab150077) for 2 h at 4 °C in dark. After washing with PBS, the sections were stained with DAPI and observed by confocal microscopy (Leica TCS SP8 STED 3X).

SIRT6 [2] = biological target: T1, SIRT6 (Homo sapiens, UniProt Q8N6T7); assay: Cellular thermal shift assay (CETSA) in Hela cells; format: cell-based; parameters: endogenous in cells; host or cells: HeLa; conditions: 8a 25 μM, 6 h
Protocol: The CETSA [26] approach builds on the thermal shift assay concept where ligand binding to its target protein affects protein stability at high temperatures. Hela cells were plated in 100 mm plates. After 12 h attachment, Hela cells were incubated with 8a (25 μM) for 6 h, and then the cells were digested with trypsin and collected. The collected cells were subsequently aliquoted into […], and incubated each part at different temperatures (40, 41, 42, 43, 44, 45, 46, 47, 48, 49 and 50 °C) for 3 min. The heated cells were then snap frozen in liquid nitrogen three times to lyse. After that, the lysed cells were then centrifuged at 12,000 rpm for 20 min. Then the level of SIRT6 was detected by western blot.

SIRT6 [3] = biological target: T1, SIRT6; assay: Biolayer interferometry (BLI) binding; parameters: The human full-length SIRT6 gene was inserted into the prokaryotic expression vector (pET-28a (+)); inferred from the pET-28a(+) vector, Ni-NTA purification and Ni-NTA biosensor loading); made in house; host or cells: Escherichia coli BL21 (DE3); conditions: Octet RED, Ni-NTA biosensors, 25 °C
Protocol: Binding assays were performed using Ni-NTA biosensors on the Octet® Red96 system (ForteBio, Menlo Park, CA) in 96-well microplates and measuring changes wavelength shift (in nm) over time (s). All steps were carried out at 25 °C with the plate shaking speed of 1000 rpm. The total working volume was 200 μL in 96-well microplate (Greiner Bio-one, Germany). The SIRT6 protein and compounds were diluted with phosphate-buffered saline (PBS, pH 7.4). Ni-NTA biosensors were prewetted for at least 10 min in PBS prior to the assay. Afterwards, the Ni-NTA biosensors were immobilized for 180 s with 200 μL culture containing 20 μg/mL SIRT6. After loading, sensors were washed in PBS buffer for another 120 s and transferred to wells containing different concentrations of compound 8a (0, 12.5, 25, 50, 100 μM) for binding. Finally, the dissociation step was carried out in kinetic buffer for 180 s. The assay data were processed and calculated using the ForteBio Octet RED analysis software.

T1 sequence (Q8N6T7 whole entry): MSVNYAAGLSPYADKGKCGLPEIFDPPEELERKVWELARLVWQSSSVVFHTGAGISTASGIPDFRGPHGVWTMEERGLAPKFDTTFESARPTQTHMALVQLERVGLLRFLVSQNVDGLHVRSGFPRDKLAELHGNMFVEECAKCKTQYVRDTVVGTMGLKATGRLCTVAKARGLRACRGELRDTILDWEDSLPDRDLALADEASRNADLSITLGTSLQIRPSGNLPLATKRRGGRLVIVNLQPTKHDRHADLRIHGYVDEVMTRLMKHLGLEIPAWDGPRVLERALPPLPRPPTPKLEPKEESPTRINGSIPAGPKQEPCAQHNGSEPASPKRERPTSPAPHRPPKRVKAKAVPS
Sequence of HDAC7 (Q8WUI4 whole entry): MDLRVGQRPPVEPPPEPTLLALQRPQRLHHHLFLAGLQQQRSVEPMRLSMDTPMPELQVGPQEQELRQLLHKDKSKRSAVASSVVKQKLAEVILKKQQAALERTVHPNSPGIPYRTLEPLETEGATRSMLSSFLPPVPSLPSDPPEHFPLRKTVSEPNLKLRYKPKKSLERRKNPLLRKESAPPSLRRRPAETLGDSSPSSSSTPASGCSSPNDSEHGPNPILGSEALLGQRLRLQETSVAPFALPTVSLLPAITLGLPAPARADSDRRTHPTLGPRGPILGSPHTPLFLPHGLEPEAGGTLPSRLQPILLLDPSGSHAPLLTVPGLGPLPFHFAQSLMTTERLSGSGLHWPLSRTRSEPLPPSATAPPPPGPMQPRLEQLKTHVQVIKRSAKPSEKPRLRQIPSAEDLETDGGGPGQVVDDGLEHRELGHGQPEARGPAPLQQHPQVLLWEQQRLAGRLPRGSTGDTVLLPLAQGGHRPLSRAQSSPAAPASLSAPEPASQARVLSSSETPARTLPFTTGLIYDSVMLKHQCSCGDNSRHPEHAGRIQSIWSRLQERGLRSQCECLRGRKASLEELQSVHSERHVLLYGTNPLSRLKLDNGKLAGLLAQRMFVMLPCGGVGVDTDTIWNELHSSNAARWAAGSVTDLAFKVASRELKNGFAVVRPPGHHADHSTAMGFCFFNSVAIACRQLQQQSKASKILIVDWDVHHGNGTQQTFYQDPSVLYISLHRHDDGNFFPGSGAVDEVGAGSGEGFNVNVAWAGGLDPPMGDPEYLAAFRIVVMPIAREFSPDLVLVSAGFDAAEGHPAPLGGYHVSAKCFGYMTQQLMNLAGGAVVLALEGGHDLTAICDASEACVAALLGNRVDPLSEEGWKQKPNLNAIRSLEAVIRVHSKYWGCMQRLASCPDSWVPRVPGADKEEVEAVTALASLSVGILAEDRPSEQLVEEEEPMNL
Sequence of HDAC9 (Q9UKV0 whole entry, species assumed): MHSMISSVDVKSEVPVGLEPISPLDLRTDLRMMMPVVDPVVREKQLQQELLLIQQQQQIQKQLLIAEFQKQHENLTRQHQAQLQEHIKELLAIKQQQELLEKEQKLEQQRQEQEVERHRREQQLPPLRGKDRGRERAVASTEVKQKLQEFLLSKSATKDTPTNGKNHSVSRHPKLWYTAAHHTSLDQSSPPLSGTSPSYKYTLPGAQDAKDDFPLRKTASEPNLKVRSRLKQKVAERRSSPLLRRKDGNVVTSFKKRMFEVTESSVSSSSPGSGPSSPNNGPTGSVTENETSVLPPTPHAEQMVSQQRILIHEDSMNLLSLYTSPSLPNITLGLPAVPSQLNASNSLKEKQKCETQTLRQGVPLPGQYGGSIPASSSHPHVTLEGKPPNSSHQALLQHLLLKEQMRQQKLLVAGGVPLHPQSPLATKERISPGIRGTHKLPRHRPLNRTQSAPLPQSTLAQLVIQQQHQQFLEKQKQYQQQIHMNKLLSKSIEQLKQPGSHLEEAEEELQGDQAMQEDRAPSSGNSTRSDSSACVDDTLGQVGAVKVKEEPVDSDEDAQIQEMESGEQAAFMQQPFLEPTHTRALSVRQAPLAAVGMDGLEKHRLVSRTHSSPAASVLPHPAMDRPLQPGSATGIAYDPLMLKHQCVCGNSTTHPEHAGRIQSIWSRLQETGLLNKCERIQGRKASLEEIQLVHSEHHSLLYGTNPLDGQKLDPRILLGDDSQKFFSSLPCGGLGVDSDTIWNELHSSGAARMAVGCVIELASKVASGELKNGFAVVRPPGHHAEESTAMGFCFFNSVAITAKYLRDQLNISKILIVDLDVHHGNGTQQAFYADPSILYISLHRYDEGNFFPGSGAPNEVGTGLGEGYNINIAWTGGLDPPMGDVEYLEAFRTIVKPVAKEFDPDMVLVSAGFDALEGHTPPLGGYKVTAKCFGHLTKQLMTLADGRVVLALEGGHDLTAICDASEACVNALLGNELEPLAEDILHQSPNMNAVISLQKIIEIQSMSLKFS
Sequence of SIRT3 (Q9NTG7 whole entry, species assumed): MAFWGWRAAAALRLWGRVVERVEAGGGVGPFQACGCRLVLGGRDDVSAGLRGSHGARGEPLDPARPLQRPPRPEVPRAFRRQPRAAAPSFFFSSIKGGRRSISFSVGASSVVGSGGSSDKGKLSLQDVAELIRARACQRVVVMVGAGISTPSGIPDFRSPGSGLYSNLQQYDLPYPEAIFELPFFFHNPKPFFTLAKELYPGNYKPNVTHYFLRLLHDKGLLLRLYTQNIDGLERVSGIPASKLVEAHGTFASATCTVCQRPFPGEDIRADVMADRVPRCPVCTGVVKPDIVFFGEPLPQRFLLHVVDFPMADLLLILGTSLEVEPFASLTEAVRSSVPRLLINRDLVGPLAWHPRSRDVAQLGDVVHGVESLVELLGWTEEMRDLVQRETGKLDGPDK
Sequence of SIRT2 (Q8IXJ6 whole entry, species assumed): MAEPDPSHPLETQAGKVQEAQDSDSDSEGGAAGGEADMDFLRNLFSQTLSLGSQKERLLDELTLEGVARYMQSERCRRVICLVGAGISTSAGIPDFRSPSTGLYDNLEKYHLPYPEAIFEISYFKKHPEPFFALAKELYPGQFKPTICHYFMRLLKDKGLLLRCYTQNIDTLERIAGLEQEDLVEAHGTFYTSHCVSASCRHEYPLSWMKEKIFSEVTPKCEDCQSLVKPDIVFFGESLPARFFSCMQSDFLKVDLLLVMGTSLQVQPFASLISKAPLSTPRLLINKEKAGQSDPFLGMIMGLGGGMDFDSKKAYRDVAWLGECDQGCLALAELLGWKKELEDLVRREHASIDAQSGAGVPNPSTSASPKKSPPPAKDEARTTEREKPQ
Sequence of HDAC1 (Q13547 whole entry, species assumed): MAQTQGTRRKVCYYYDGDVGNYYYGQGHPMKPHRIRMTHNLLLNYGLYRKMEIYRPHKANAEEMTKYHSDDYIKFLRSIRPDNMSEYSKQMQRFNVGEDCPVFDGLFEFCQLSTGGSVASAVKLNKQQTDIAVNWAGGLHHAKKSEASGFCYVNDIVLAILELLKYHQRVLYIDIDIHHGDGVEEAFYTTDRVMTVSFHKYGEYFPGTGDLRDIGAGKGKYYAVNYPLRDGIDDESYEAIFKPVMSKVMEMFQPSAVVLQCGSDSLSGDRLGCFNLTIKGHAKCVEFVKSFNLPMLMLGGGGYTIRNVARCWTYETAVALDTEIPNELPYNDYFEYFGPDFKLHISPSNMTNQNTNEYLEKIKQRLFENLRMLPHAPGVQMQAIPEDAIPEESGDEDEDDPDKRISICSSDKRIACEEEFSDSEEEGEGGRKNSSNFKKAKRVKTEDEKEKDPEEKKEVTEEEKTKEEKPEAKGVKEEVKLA
Sequence of HDAC10 (Q969S8 whole entry, species assumed): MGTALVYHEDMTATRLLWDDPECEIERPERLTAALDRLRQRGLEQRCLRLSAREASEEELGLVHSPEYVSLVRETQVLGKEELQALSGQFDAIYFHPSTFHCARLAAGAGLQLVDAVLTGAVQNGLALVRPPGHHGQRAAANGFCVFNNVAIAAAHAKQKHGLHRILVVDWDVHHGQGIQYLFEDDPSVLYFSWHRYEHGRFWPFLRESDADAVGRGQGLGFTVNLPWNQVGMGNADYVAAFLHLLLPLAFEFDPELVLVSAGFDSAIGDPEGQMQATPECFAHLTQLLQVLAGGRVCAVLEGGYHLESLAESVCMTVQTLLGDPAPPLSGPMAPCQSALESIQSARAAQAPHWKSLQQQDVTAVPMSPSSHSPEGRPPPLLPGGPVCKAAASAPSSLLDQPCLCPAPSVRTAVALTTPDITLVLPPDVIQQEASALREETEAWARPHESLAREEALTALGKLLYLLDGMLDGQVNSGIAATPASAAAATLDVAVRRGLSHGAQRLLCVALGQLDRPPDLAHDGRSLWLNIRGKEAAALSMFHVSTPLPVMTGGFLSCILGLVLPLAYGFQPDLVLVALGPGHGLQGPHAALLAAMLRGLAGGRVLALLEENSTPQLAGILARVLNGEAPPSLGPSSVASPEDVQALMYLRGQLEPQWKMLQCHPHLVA

Structure (SMILES): Br.CN(C)C(SCCCCCCn1cnc2c(-c3cc(Br)c(Br)[nH]3)nccc21)=[N+](C)C.[Cl-] [Compound 8a]
- IC50 (SIRT2): 92.2 ± 1.95 µM
- IC50 (SIRT3): > 200 µM
- IC50 (HDAC1): > 200 µM
- IC50 (HDAC7): > 200 µM
- IC50 (HDAC9): > 200 µM
- IC50 (HDAC10): > 200 µM
- IC50 (HUVEC cells): 41 µM
- colony formation (BXPC-3 cells): much smaller and fewer colonies
- number of α cells and β cells in the islets [1]: no significant difference
- thermal stability of SIRT6 (SIRT6 [2]): increased
- Kd (SIRT6 [3]): 16 ± 0.313 µM
